In patent US6852740B2, “Pyrazole derivatives as p38 kinase inhibitors” (G. D. Searle & Co., priority 1997, dated 2005):

What was measured:
[1] = target: T1, human p38 kinase alpha (Homo sapiens, UniProt Q16539); test: p38α in vitro kinase assay, EGFRP procedure; type: biochemical
T1 construct: The coding region of the human p38a cDNA was obtained by PCR-amplification from RNA; made in house; host or cells: E. coli DH10B
Description: A second assay format was also employed that is based on p38 kinase alpha induced phosphorylation of EGFRP (epidermal growth factor receptor peptide, a 21 mer) in the presence of ^33P-ATP. Compounds were tested in 10 fold serial dilutions over the range of 100 μM to 0.001 μM in 1% DMSO. Each concentration of inhibitor was tested in triplicate. Compounds were evaluated in 50 μl reaction volumes in the presence of 25 mM Hepes pH 7.5, 10 mM magnesium acetate, 4% glycerol, 0.4% bovine serum albumin, 0.4 mM DTT, 50 μM unlabeled ATP, 25 μg EGFRP (200 μM), and 0.05 uCi gamma ^33P-ATP. Reactions were initiated by addition of 0.09 μg of activated, purified human GST-p38 kinase alpha. Activation was carried out using GST-MKK6 (5:1,p38:MKK6) for one hour at 30° C. in the presence of 50 μM ATP. Following incubation for 60 minutes at room temperature, the reaction was stopped by addition of 150 μl of AG 1×8 resin in 900 mM sodium formate buffer, pH 3.0 (1 volume resin to 2 volumes buffer). The mixture was mixed three times with pipetting and the resin was allowed to settle. A total of 50 μl of clarified solution head volume was transferred from the reaction wells to Microlite-2 plates. 150 μl of Microscint 40 was then added to each well of the Microlite plate, and the plate was sealed, mixed, and counted.

[2] = tested on: TNF-α release by U937 cells; test: LPS stimulation of TNF production by U937 cells; type: cell-based; details: Homo sapiens, U-937; LPS-stimulated differentiated U937 cells, TNF-α by ELISA after 4 hour incubation; read-out: TNF Cell IC50
Description: U937 cells (ATCC) were propagated in RPMI 1640 containing 10% fetal bovine serum, 100 IU/ml penicillin, 100 μg/ml streptomycin, and 2 mM glutamine (Gibco). Fifty million cells in 100 ml media were induced to terminal monocytic differentiation by 24 hour incubation with 20 ng/ml phorbol 12-myristate 13-acetate (Sigma). The cells were washed by centrifugation (200×g for 5 min) and resuspended in 100 ml fresh medium. After 24-48 hours, the cells were harvested, centrifuged, and resuspended in culture medium at 2 million cells/ml.
U937 cells (0.1 ml, 2 million/ml) were incubated with 0.1 ml compound (0.004-50 μM, final concentration) for 1 hour in 96 well microtiter plates. Compounds were prepared as 10 mM stock solutions in DMSO and diluted in culture medium to yield a final DMSO concentration of 0.1% in the cell assay. LPS (E coli, 100 ng/ml final concentration) was then added at a volume of 0.02 ml. After 4 hour incubation at 37° C., the amount of TNF-α released in the culture medium was quantitated by ELISA. Inhibitory potency is expressed as IC50 (μM).

[3] = target: T1, human p38 kinase alpha; test: p38α in vitro kinase assay, PHAS-I procedure; type: biochemical
Description: The ability of compounds to inhibit human p38 kinase alpha was evaluated using two in vitro assay methods. In the first method, activated human p38 kinase alpha phosphorylates a biotinylated substrate, PHAS-I (phosphorylated heat and acid stable protein-insulin inducible), in the presence of gamma ^32P-ATP (^32P-ATP). PHAS-I was biotinylated prior to the assay and provides a means of capturing the substrate which is phosphorylated during the assay. p38 Kinase was activated by MKK6. Compounds were tested in 10 fold serial dilutions over the range of 100 μM to 0.001 μM using 1% DMSO. Each concentration of inhibitor was tested in triplicate.
All reactions were carried out in 96 well polypropylene plates. Each reaction well contained 25 mM HEPES pH 7.5, 10 mM magnesium acetate and 50 μM unlabeled ATP. Activation of p38 was required to achieve sufficient signal in the assay. Biotinylated PHAS-I was used at 1-2 μg per 50 μl reaction volume, with a final concentration of 1.5 μM. Activated human p38 kinase alpha was used at 1 μg per 50 μl reaction volume representing a final concentration of 0.3 μM. […]
Following incubation, 20 μl of reaction mixture was transferred to a high capacity streptavidin coated filter plate (SAM-streptavidin-matrix, Promega) prewetted with phosphate buffered saline. […] The plates were sealed and counted.

T1 sequence (Q16539 whole entry): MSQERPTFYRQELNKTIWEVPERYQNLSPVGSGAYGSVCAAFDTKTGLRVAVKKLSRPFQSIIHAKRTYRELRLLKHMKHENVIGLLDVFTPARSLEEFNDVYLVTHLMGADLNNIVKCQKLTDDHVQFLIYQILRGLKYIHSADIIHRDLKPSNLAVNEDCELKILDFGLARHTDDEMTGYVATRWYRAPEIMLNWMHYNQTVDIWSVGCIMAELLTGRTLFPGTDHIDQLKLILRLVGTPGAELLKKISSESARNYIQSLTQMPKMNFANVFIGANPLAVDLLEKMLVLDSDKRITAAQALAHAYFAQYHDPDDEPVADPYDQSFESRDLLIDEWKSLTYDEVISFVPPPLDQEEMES

| IC50 [1] | IC50 [2] | IC50 [3] | melting point | Compound |
| --- | --- | --- | --- | --- |
| 2.8 µM | 2.3 µM | 1 µM | – | Cc1n[nH]c(CCc2ccccc2)c1-c1ccncc1 [Example 2, 4-[3-Methyl-5-(2-phenylethyl)-1H-pyrazol-4-yl]pyridine] |
| 0.66 µM | 0.6 µM | 8.7 µM | – | Cc1n[nH]c(/C=C/c2ccccc2)c1-c1ccncc1 [Example 1, 4-[3-Methyl-5-(2-phenylethenyl)-1H-pyrazol-4-yl]pyridine] |
| – | – | – | 125 to 131 °C | c1ccc(CCc2n[nH]cc2-c2ccncc2)cc1 [Example 3, 4-[5-(2-phenylethyl)-1H-pyrazol-4-yl]pyridine] |
